Laboratory results as given in the NIST ThermoML archive (doi:10.1021/je400184t).

Experiment: excess molar enthalpy (molar enthalpy of mixing); xn = mol fraction of the nth substance listed
Conditions: 298.15 K, 101 kPa, Liquid, Calvet calorimetry

Cc1ccccc1 [toluene] + CCCCCCC
Conditions	excess molar enthalpy [kcal/mol]
x2 = 0.00901	0.0055
x2 = 0.02172	0.0136
x2 = 0.04198	0.0253
x2 = 0.06142	0.0359
x2 = 0.08009	0.0457
x2 = 0.09803	0.054
x2 = 0.1153	0.0621
x2 = 0.1319	0.0691
x2 = 0.1479	0.0758
x2 = 0.1633	0.0815
x2 = 0.1782	0.087
x2 = 0.1925	0.0918
x2 = 0.2064	0.09608
x2 = 0.2198	0.0999
x2 = 0.2327	0.1035
x2 = 0.2452	0.1071
x2 = 0.2574	0.1102
x2 = 0.2691	0.113
x2 = 0.2805	0.115
x2 = 0.2915	0.118
x2 = 0.3022	0.1197
x2 = 0.3125	0.1214
x2 = 0.3226	0.1233
x2 = 0.3324	0.1248
x2 = 0.3419	0.126
x2 = 0.3511	0.1272
x2 = 0.3601	0.1281
x2 = 0.3688	0.1291
x2 = 0.3773	0.13
x2 = 0.3856	0.1307
x2 = 0.3883	0.131
x2 = 0.3909	0.131
x2 = 0.3935	0.1312
x2 = 0.3961	0.1315
x2 = 0.3987	0.1317
x2 = 0.4012	0.1317
x2 = 0.4038	0.1319
x2 = 0.4063	0.1319
x2 = 0.4088	0.1322
x2 = 0.4112	0.1324
x2 = 0.4137	0.1324
x2 = 0.4161	0.1324
x2 = 0.4185	0.1326
x2 = 0.4209	0.1326
x2 = 0.4232	0.1329
x2 = 0.4256	0.1329
x2 = 0.4279	0.1329
x2 = 0.4302	0.1331
x2 = 0.4325	0.1331
x2 = 0.4348	0.1331
x2 = 0.4382	0.1331
x2 = 0.4415	0.1334
x2 = 0.4449	0.1334
x2 = 0.4481	0.1334
x2 = 0.4514	0.1334
x2 = 0.4546	0.1334
x2 = 0.4578	0.1334
x2 = 0.4609	0.1334
x2 = 0.464	0.1334
x2 = 0.4671	0.1334
x2 = 0.4701	0.1331
x2 = 0.4731	0.1331
x2 = 0.476	0.1331
x2 = 0.479	0.1331
x2 = 0.4819	0.1329
x2 = 0.4847	0.1329
x2 = 0.4875	0.1329
x2 = 0.4903	0.1326
x2 = 0.4931	0.1326
x2 = 0.4959	0.1324
x2 = 0.4995	0.1322
x2 = 0.503	0.1322
x2 = 0.5066	0.1319
x2 = 0.51	0.1319
x2 = 0.5134	0.1317
x2 = 0.5168	0.1315
x2 = 0.5202	0.1312
x2 = 0.5234	0.131
x2 = 0.5267	0.1307
x2 = 0.5299	0.1305
x2 = 0.533	0.1303
x2 = 0.5361	0.13
x2 = 0.5392	0.1298
x2 = 0.5422	0.1295
x2 = 0.5452	0.1293
x2 = 0.5482	0.1291
x2 = 0.5511	0.1288
x2 = 0.5539	0.1286
x2 = 0.5568	0.1283
x2 = 0.5589	0.1281
x2 = 0.5609	0.1279
x2 = 0.563	0.1276
x2 = 0.565	0.1274
x2 = 0.5671	0.1272
x2 = 0.5691	0.1269
x2 = 0.571	0.1267
x2 = 0.573	0.1264
x2 = 0.5749	0.1262
x2 = 0.5769	0.126
x2 = 0.5788	0.126
x2 = 0.5807	0.1257
x2 = 0.5826	0.1255
x2 = 0.5844	0.1252
x2 = 0.5863	0.125
x2 = 0.5881	0.1248
x2 = 0.5899	0.1245
x2 = 0.5917	0.1243
x2 = 0.5935	0.124
x2 = 0.5952	0.1238
x2 = 0.597	0.1236
x2 = 0.5987	0.1233
x2 = 0.6004	0.1231
x2 = 0.6021	0.1228
x2 = 0.6038	0.1226
x2 = 0.6055	0.1224
x2 = 0.6071	0.1221
x2 = 0.6088	0.1219
x2 = 0.6148	0.1212
x2 = 0.6209	0.12
x2 = 0.6271	0.119
x2 = 0.6335	0.118
x2 = 0.64	0.117
x2 = 0.6466	0.116
x2 = 0.6534	0.114
x2 = 0.6603	0.113
x2 = 0.6673	0.112
x2 = 0.6745	0.1102
x2 = 0.6819	0.1085
x2 = 0.6894	0.1068
x2 = 0.6971	0.1052
x2 = 0.705	0.1035
x2 = 0.713	0.1013
x2 = 0.7212	0.09943
x2 = 0.7297	0.09751
x2 = 0.7383	0.0951
x2 = 0.7471	0.0927
x2 = 0.7562	0.0903
x2 = 0.7623	0.0887
x2 = 0.7685	0.087
x2 = 0.7748	0.0851
x2 = 0.7812	0.0832
x2 = 0.7877	0.0813
x2 = 0.7943	0.0789
x2 = 0.801	0.077
x2 = 0.8079	0.0746
x2 = 0.8148	0.0724
x2 = 0.8219	0.0703
x2 = 0.8291	0.0679
x2 = 0.8365	0.0655
x2 = 0.8439	0.0629
x2 = 0.8515	0.0602
x2 = 0.8592	0.0574
x2 = 0.8671	0.0545
x2 = 0.8752	0.0516
x2 = 0.8833	0.0485
x2 = 0.8917	0.0452
x2 = 0.9002	0.0418
x2 = 0.9088	0.0385
x2 = 0.9176	0.0351
x2 = 0.9266	0.0315
x2 = 0.9358	0.0277
x2 = 0.9434	0.0246
x2 = 0.9511	0.0215
x2 = 0.9589	0.0184
x2 = 0.9668	0.0151
x2 = 0.9749	0.0115
x2 = 0.9831	0.00789
x2 = 0.9915	0.00382
